A value given as a limit tells only on which side of the number the result lay.

One assay addresses T1, APOL1 G1 Protein (Homo sapiens, UniProt O14791, I384M/S342G).
T1 sequence (O14791 28-398 S342G/I384M): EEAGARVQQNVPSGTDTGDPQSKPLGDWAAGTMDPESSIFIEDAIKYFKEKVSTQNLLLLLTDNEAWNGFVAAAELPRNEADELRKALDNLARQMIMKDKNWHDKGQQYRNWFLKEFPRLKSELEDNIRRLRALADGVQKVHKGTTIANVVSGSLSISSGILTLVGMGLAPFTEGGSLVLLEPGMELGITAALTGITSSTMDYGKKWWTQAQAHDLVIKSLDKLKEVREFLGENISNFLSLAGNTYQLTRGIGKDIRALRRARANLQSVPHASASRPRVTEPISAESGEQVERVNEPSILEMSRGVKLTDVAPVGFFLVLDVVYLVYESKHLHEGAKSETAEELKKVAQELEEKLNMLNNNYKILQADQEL
The assay can be described thus: Trypanosoma brucei brucei Lysis Assay Using APOL1 Recombinant Protein (AlamarBlue viability). It is filed as cell-based. The note with it: read-out: Trypanosomal Assay (IC50). The source says: Trypanosoma brucei brucei is a blood stream parasite to which human, gorillas and baboon are immune due to the presence of the APOL1 protein in their HDL particles. The protein is uptaken by the parasite via the TbHpHb receptor located in its flagellar pocket and is bonded by the Hpr protein contained in the HDL particles which triggers the receptor endocytosis by the parasite.
Following endocytosis, the formed vesicle containing the HDL particle matures from early to late endosome, and subsequently to lysosome. The concomitant pH change in the lumen of the vesicle triggers the insertion of the APOL1 protein into the membrane of the late endosome/lysosome and hereby triggers lysosomal membrane permeabilization and as a further downstream event, trypanosome lysis. Trypanosoma brucei brucei is sensitive to lysis by all three APOL1 variants (G0, G1, and G2).
The Trypanosoma brucei brucei lysis assay is a lysis assay of the parasite using recombinant APOL1 protein variant followed by a fluorescent detection method of viability by the addition of AlamarBlue reagent to the assay well, a general metabolic redox indicator (AlamarBlue assay).
Briefly, the AlamarBlue active compound, the resazurin, a blue, water soluble, non-toxic and cell permeable molecule, which can be followed by absorbance, is reduced by various metabolic pathways into resorufin, a red compound which can be followed by either absorbance or fluorescence. The assay allows the calculation of the percent viability (percent of living Trypanosomes remaining in each well) at the end of a lysis relative to the untreated condition by interpolation of fluorescent values (FLU) on a standard curve with a known amount of seeded trypanosome/well.
Trypanosoma brucei brucei (ATCC, Cat. No. PRA-382) • Lister 427 VSG 221 bloodstream form.
Thaw/Expansion Media (ATCC Medium 2834 Modified HMI-9 Medium)
Assay Media (No Phenol Red/No FBS): Make on Day of Use
Hypoxanthine Stock (100×)-9 (10×)
Equipment • E1-Clip Tip pipette 12 channel adjustable 2-125 μL, Cat. No. 4672070BT • ThermoFisher MultiDrop 384, Cat. No. 5840300 • Multidrop • Agilent Bravo, Cat. No. G5409A • Bravo • SpectraMax M5
Trypanosoma brucei brucei Culture
Step 2, Day 4 • Centrifuge at 800×g for 5 minutes at room temperature. • Resuspend in 1 mL media. • Make a 1:25 fold dilution (10 μL/240 μL media). • Count on a hemocytometer (after adding parasites). • Let sit for 1-2 minutes for the parasites to settle. • Count should be approximately 100 viable motile parasites/16 grid or approximately 25×10^6 parasites/flask. • Passage the parasites by adding 1×10^6 parasites/T75 flask in 20 mL media. • Passage the parasites by adding 2.33×10^6 parasites/T175 flask in 46.6 mL media. • For every T75 flask should make enough for approximately 1.5×384 well assay plates. • For every T175 flask should make enough for approximately 3.8×384 well assay plates.
Step 3, Day 6 • Centrifuge at 800×g for 5 minutes. • Resuspend in 3 mL assay media (No phenol red, no FBS) per 75 starting flask. • Resuspend in 7 mL assay media (No phenol red, no FBS) per 175 flask • Make a 1:25 fold dilution. • Count by hemocytometer. • Every T75 flask set up should have approximately 75×10^6 parasites/flask (verify doubling time=8.7 hours±1 hour). • Every T175 flask set up should have approximately 175×10^6 parasites/flask (verify doubling time=8.7 hours±1 hour). • Require 46×10^6 parasites per 384 well plate (at 120,000 parasites per well). […]
Background: The colour change of resazurin is a common sign of viable cells or microbes.

The next assay addresses T2, G1 APOL1 (Homo sapiens, UniProt O14791, I384M/S342G).
T2 construct: expressed in transfected cells
T2 sequence (O14791 28-398 S342G/I384M): T1 sequence (O14791 28-398 S342G/I384M)
Description: Acute APOL1 Thallium Assay with Inducible Stable Clones of HEK 293 Cells. It counts as cell-based. To be noted: HEK 293 inducible stable clones, G1 APOL1; read-out: Thallium Assay (IC50). Put shortly:
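HEK293 T-Rex cells with a stable tetracycline-inducible G1 APOL1 construct (clone DC3.25) were induced with tetracycline at plating, 26000 cells per well, then incubated at 37° C. They were loaded with an AM-ester thallium-sensitive dye and stimulated with Tl+. The fluorescence rise measured Tl+ influx through APOL1 pores.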

For orientation: IC50 means the concentration needed to halve the response being measured. In the case of `O=C(CCc1c(-c2ccc(F)cc2)[nH]c2ccc(F)cc12)NC1(c2ccccc2)CC1` [Compound 65], the IC50 on APOL1 G1 Protein and at G1 APOL1 was greater than 1000 nM each time.
Turning to `CC(C)(C)OC(=O)NC1CCCN(C(=O)CCc2c(-c3ccc(F)cc3)[nH]c3ccc(F)cc23)C1` (stereo not drawn) [Compound 66], the IC50 at APOL1 G1 Protein and on G1 APOL1 was greater than 1000 nM in each case.
Take `NC(=O)CCc1c(-c2ccc(F)cc2)[nH]c2ccc(F)cc12` [Compound 68]: the IC50 on APOL1 G1 Protein and at G1 APOL1 was greater than 1000 nM each time.
As to `O=C(CCc1c(-c2ccc(F)cc2)[nH]c2ccc(F)cc12)NC1COC1` [Compound 69], the IC50 at APOL1 G1 Protein and at G1 APOL1 was greater than 1000 nM in each case.
Take `O=C(CCc1c(-c2ccc(F)cc2)[nH]c2ccc(F)cc12)Nc1cc[nH]n1` [Compound 70]: the IC50 was greater than 1000 nM on APOL1 G1 Protein and 250 to 1000 nM at G1 APOL1.
`O=C(CCc1c(-c2ccc(F)cc2)[nH]c2ccc(F)cc12)N1CCCC1CO` (stereo not drawn) [Compound 71]: the IC50 at APOL1 G1 Protein and at G1 APOL1 was greater than 1000 nM each time.
In the case of `CN(CCNC(=O)OC(C)(C)C)C(=O)CCc1c(-c2ccc(F)cc2)[nH]c2ccc(F)cc12` [Compound 72], the IC50 at APOL1 G1 Protein and on G1 APOL1 was greater than 1000 nM in each case.
Regarding `CNC(=O)CCc1c(-c2ccc(F)cc2)[nH]c2ccc(F)cc12` [Compound 73], the IC50 at APOL1 G1 Protein and at G1 APOL1 was greater than 1000 nM throughout.
Regarding `CCC(C)(O)CNC(=O)CCc1c(-c2ccc(F)cc2)[nH]c2ccc(F)cc12` (stereo not drawn) [Compound 74], the IC50 on APOL1 G1 Protein and on G1 APOL1 was greater than 1000 nM throughout.
`CC(C)C(CO)NC(=O)CCc1c(-c2ccc(F)cc2)[nH]c2ccc(F)cc12` (stereo not drawn) [Compound 75]: the IC50 on APOL1 G1 Protein and at G1 APOL1 was greater than 1000 nM in each case.
As for `CC(C)(C)OC(=O)N1C[C@H](NC(=O)CCc2c(-c3ccc(F)cc3)[nH]c3ccc(F)cc23)[C@@H](O)C1` [Compound 76], the IC50 at APOL1 G1 Protein and on G1 APOL1 was greater than 1000 nM in each case.
As to `C[C@H](O)CNC(=O)CCc1c(-c2ccc(F)cc2)[nH]c2ccc(F)cc12` [Compound 78], the IC50 on APOL1 G1 Protein and at G1 APOL1 was greater than 1000 nM in each case.
For `C[C@@H](O)CNC(=O)CCc1c(-c2ccc(F)cc2)[nH]c2ccc(F)cc12` [Compound 79], the IC50 on APOL1 G1 Protein and on G1 APOL1 was greater than 1000 nM in each case.
For the compound `CC[C@@H](CO)NC(=O)CCc1c(-c2ccc(F)cc2)[nH]c2ccc(F)cc12` [Compound 80], the IC50 at APOL1 G1 Protein and at G1 APOL1 was greater than 1000 nM in each case.
With `O=C(CCc1c(-c2ccc(F)cc2)[nH]c2ccc(F)cc12)N1CCCC(O)C1` (stereo not drawn) [Compound 81], the IC50 at APOL1 G1 Protein and on G1 APOL1 was greater than 1000 nM throughout.
Take `O=C(CCc1c(-c2ccc(F)cc2)[nH]c2ccc(F)cc12)NCC1(O)CC1` [Compound 82]: the IC50 at APOL1 G1 Protein and at G1 APOL1 was greater than 1000 nM in each case.
`CC(C)(C)OC(=O)N[C@H]1C[C@@H](NC(=O)CCc2c(-c3ccc(F)cc3)[nH]c3ccc(F)cc23)C1` [Compound 83]: the IC50 on APOL1 G1 Protein and on G1 APOL1 was greater than 1000 nM in each case.
`O=C(CCc1c(-c2ccc(F)cc2)[nH]c2ccc(F)cc12)N[C@H]1C[C@H](O)C1` [Compound 84]: the IC50 at APOL1 G1 Protein and on G1 APOL1 was greater than 1000 nM each time.
Regarding `O=C(CCc1c(-c2ccc(F)cc2)[nH]c2ccc(F)cc12)NCCCO` [Compound 85], the IC50 on APOL1 G1 Protein and on G1 APOL1 was greater than 1000 nM in each case.
With `CC1(O)CN(C(=O)CCc2c(-c3ccc(F)cc3)[nH]c3ccc(F)cc23)C1` [Compound 86], the IC50 at APOL1 G1 Protein and on G1 APOL1 was greater than 1000 nM in each case.
With `O=C(CCc1c(-c2ccc(F)cc2)[nH]c2ccc(F)cc12)N[C@H]1C[C@@H](O)C1` [Compound 87], the IC50 on APOL1 G1 Protein and at G1 APOL1 was greater than 1000 nM in each case.
As to `CC[C@H](CO)NC(=O)CCc1c(-c2ccc(F)cc2)[nH]c2ccc(F)cc12` [Compound 89], the values for the IC50 on APOL1 G1 Protein and on G1 APOL1 were less than 250 nM and 250 to 1000 nM, respectively.
In the case of `O=C(CCc1c(-c2ccc(F)cc2)[nH]c2ccc(F)cc12)NC(CO)CF` (stereo not drawn) [Compound 90], the IC50 at APOL1 G1 Protein was less than 250 nM; on G1 APOL1 it was 250 to 1000 nM.
Take `O=C(CCc1c(-c2ccc(F)cc2)[nH]c2c(F)cc(F)cc12)NC1(CO)CCC1` [Compound 91, 3-[5,7-difluoro-2-(4-fluorophenyl)-1H-indol-3-yl]-N-[1-(hydroxymethyl)-cyclobutyl]propanamide]: the IC50 at APOL1 G1 Protein and on G1 APOL1 was less than 250 nM each time.
As for `Cc1nc(NC(=O)CCc2c(-c3ccc(F)cc3)[nH]c3c(F)cc(F)cc23)no1` [Compound 92, 3-[5,7-difluoro-2-(4-fluorophenyl)-1H-indol-3-yl]-N-(5-methyl-1,2,4-oxadiazol-3-yl)propanamide], the IC50 on APOL1 G1 Protein and at G1 APOL1 was greater than 1000 nM throughout.
In the case of `CS(=O)(=O)NC(=O)CCc1c(-c2ccc(F)cc2)[nH]c2c(F)cc(F)cc12` [Compound 93, 3-[5,7-difluoro-2-(4-fluorophenyl)-1H-indol-3-yl]-N-methylsulfonyl-propanamide], the IC50 at APOL1 G1 Protein and at G1 APOL1 was greater than 1000 nM throughout.
Take `O=C(CCc1c(-c2ccc(F)cc2)[nH]c2c(F)cc(F)cc12)NC(CO)(CO)CO` [Compound 95]: the IC50 on APOL1 G1 Protein and at G1 APOL1 was 250 to 1000 nM each time.
As to `O=C(CCc1c(-c2ccc(F)cc2)[nH]c2c(F)cc(F)cc12)Nc1c[nH][nH]c1=O` [Compound 97], the figures for the IC50 at APOL1 G1 Protein and on G1 APOL1 were greater than 1000 nM and 250 to 1000 nM, respectively.
For `NC(=O)[C@@H](CO)NC(=O)CCc1c(-c2ccc(F)cc2)[nH]c2c(F)cc(F)cc12` [Compound 98] the same measures were greater than 1000 nM and 250 to 1000 nM.
With `O=C(CCc1c(-c2ccc(F)cc2)[nH]c2c(F)cc(F)cc12)NC(CO)CF` (stereo not drawn) [Compound 99], the IC50 at APOL1 G1 Protein and at G1 APOL1 was less than 250 nM throughout.
As to `O=C(CCc1c(-c2ccc(F)cc2)[nH]c2c(F)cc(F)cc12)NC1CCCC1=O` (stereo not drawn) [Compound 101], the IC50 on APOL1 G1 Protein and on G1 APOL1 was less than 250 nM in each case.
Take `COCC1(NC(=O)CCc2c(-c3ccc(F)cc3)[nH]c3c(F)cc(F)cc23)CC1` [Compound 102]: the concentration for half-maximal inhibition (IC50) on APOL1 G1 Protein and on G1 APOL1 was 250 to 1000 nM in each case.
For `CC(C)(CO)NC(=O)CCc1c(-c2ccc(F)cc2)[nH]c2c(F)cc(F)cc12` [Compound 103], the IC50 at APOL1 G1 Protein and at G1 APOL1 was 250 to 1000 nM in each case.
In the case of `O=C(CCc1c(-c2ccc(F)cc2)[nH]c2c(F)cc(F)cc12)N1CC(CO)C1` [Compound 104], the IC50 on APOL1 G1 Protein and on G1 APOL1 was greater than 1000 nM in each case.
Turning to `N#CC(CO)NC(=O)CCc1c(-c2ccc(F)cc2)[nH]c2c(F)cc(F)cc12` (stereo not drawn) [Compound 106], the IC50 was 250 to 1000 nM at APOL1 G1 Protein and less than 250 nM on G1 APOL1.
For `Cn1ccnc1NC(=O)CCc1c(-c2ccc(F)cc2)[nH]c2c(F)cc(F)cc12` [Compound 108], in that order: greater than 1000 nM and greater than 1000 nM.
